For the assay, the target named is Acetylcholinesterase (Electrophorus electricus, UniProt O42275).
Sequence of Acetylcholinesterase (O42275 whole entry): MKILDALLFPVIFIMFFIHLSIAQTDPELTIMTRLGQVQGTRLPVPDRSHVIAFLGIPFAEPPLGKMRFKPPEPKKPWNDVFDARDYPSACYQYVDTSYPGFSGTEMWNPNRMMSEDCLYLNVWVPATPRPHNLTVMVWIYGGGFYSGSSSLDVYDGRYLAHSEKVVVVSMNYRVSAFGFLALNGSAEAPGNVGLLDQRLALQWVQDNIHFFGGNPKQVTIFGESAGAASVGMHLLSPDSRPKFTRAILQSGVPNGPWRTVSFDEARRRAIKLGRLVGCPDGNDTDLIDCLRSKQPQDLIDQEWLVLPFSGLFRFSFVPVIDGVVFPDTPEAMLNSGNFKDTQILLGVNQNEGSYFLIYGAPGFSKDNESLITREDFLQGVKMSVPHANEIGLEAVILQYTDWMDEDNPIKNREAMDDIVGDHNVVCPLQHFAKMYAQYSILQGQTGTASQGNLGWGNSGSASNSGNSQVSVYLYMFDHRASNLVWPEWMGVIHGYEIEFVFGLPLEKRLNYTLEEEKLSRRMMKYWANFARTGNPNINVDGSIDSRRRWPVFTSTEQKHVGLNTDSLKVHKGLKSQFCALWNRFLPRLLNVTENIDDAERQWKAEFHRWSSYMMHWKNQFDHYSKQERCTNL

Description: Inhibition of electric eel acetylcholinesterase using acetylthiocholine iodide as substrate after 10 mins by Ellman's spectrophotometric method

Compound `CCCCC[C@H](O)/C=C/CCCCCCCc1cccc(OC)c1C(=O)OC` registered an IC50 of 342 µM.

Take `CCCC/C=C\CCCCCCCCCc1cccc(O)c1`: 17.2 µM corresponded to half-maximal inhibition (IC50). Regarding `CCCCC[C@H](O)/C=C/CCCCCCCc1cccc(O)c1C(=O)O`, half-maximal inhibition (IC50) was put at 3.18 µM. To `CCCC/C=C\CCCCCCCCCc1cccc(OC)c1C(=O)OC` belongs 358 µM. In turn, `CCCCCC/C=C\CCCCCCCCCc1cccc(O)c1` came in with a half-inhibitory concentration (IC50) of 13.1 µM.

Compound `CCCC/C=C\CCCCCCCCCc1cccc(OC)c1` displayed a concentration for half-maximal inhibition (IC50) of 178 µM. Compound `CCCCCC/C=C\CCCCCCCCCc1cccc(OC)c1C(=O)OC` showed an IC50 of 303 µM.

(Values after ChEMBL document CHEMBL1795324, “New class of acetylcholinesterase inhibitors from the stem bark of Knema laurina and their structural insights” (Bioorg Med Chem Lett, 2011).)
